pKd: −log10 of the molar value. Converted amounts (≈) assume the structure as drawn. Non-standard residues stand in square brackets, D forms with d. Residues, ends and D or L forms follow the SMILES beside them. *: point of attachment. Phe(4-guanidino) = N=C(N)Nc1ccc(C[C@H](N)C(=O)O)cc1; Bip = N[C@@H](Cc1ccc(-c2ccccc2)cc1)C(=O)O; Phe(4-NH2) = Nc1ccc(C[C@H](N)C(=O)O)cc1; hArg = N=C(N)NCCCC[C@H](N)C(=O)O; Agp = N=C(N)NC[C@H](N)C(=O)O; Orn = NCCC[C@H](N)C(=O)O; NHBn = c1ccc(CN*)cc1
Legend:
[1] = Chemical stability assessed as half life at 1 mg/ml in presence of trypsin incubated for 24 hrs by RP-HPLC; assay type: physicochemical; details: for half-life at 1 mg/ml: trypsin; for t1/2: isolated protein, 24 h
Staphylococcus aureus [2] = assay: Antimicrobial activity against Staphylococcus aureus ATCC 25923 by serial dilution method; assay type: functional
Staphylococcus aureus [3] = assay: Antimicrobial activity against methicillin-resistant Staphylococcus aureus ATCC 33591 by serial dilution method; assay type: functional
[4] = Binding affinity to trypsin at 25 degC by isothermal calorimetry
[5] = Half life in CD1 mouse liver whole organ extracts assessed as half life at 1 mg/ml at 37 degC by HPLC; assay type: ADME, tissue-based
[6] = Half life in CD1 mouse stomach whole organ extracts assessed as half life at 1 mg/ml at 37 degC at pH 7.4 by HPLC; assay type: ADME, tissue-based
[7] = Half life in CD1 mouse duodenum whole organ extracts assessed as half life at 1 mg/ml at 37 degC by HPLC; assay type: ADME, tissue-based

| Structure (SMILES) | half-life at 1 mg/ml [1] [h] | MIC (Staphylococcus aureus [2]) [µg/mL] | MIC (Staphylococcus aureus [3]) [µg/mL] | pKd [4] | half-life at 1 mg/ml [5] [h] | half-life at 1 mg/ml [6] [h] | half-life at 1 mg/ml [7] [h] | t1/2 [1] |
| --- | --- | --- | --- | --- | --- | --- | --- | --- |
| N=C(N)NCCC[C@H](N)C(=O)N[C@@H](Cc1ccc(-c2ccccc2)cc1)C(=O)N[C@@H](Cc1ccc(NC(=N)N)cc1)C(=O)NCc1ccccc1 | 4.1 | 5 (≈ 7.24 µM) | 5 (≈ 7.24 µM) | 5.28 | – | – | – | – |
| N=C(N)NCCC[C@H](NC(=O)[C@@H](N)CCCNC(=N)N)C(=O)N[C@@H](Cc1c[nH]c2ccccc12)C(=O)NCc1ccccc1 (H-Arg-Arg-Trp-NHBn) | < 0.5 | 25 (≈ 41.3 µM) | 75 (≈ 124 µM) | – | – | – | – | – |
| N=C(N)NCCC[C@H](NC(=O)[C@@H](N)CCCNC(=N)N)C(=O)N[C@@H](Cc1ccc(-c2ccccc2)cc1)C(=O)NCc1ccccc1 (H-Arg-Arg-[Bip]-NHBn) | < 0.5 | 5 (≈ 7.78 µM) | 5 (≈ 7.78 µM) | – | – | – | – | – |
| N=C(N)NCCC[C@H](NC(=O)[C@H](Cc1ccc(-c2ccccc2)cc1)NC(=O)[C@@H](N)CCCNC(=N)N)C(=O)NCc1ccccc1 (H-Arg-[Bip]-Arg-NHBn) | 1 | 10 (≈ 15.6 µM) | 10 (≈ 15.6 µM) | 4.95 | 1.76 | 0.167 | 0.102 | – |
| N=C(N)NCCC[C@H](N)C(=O)N[C@@H](Cc1ccc(-c2ccccc2)cc1)C(=O)N[C@@H](CCCCN)C(=O)NCc1ccccc1 (H-Arg-[Bip]-Lys-NHBn) | 2.8 | 10 (≈ 16.3 µM) | 10 (≈ 16.3 µM) | 4.70 | – | – | – | – |
| N=C(N)NCCC[C@H](N)C(=O)N[C@@H](Cc1ccc(-c2ccccc2)cc1)C(=O)N[C@@H](CNC(=N)N)C(=O)NCc1ccccc1 (H-Arg-[Bip]-[Agp]-NHBn) | – | 5 (≈ 8.13 µM) | 5 (≈ 8.13 µM) | – | 3.19 | 11.7 | 5.39 | Stable |
| N=C(N)NCCC[C@H](N)C(=O)N[C@@H](Cc1ccc(-c2ccccc2)cc1)C(=O)N[C@@H](CCCN)C(=O)NCc1ccccc1 (H-Arg-[Bip]-[Orn]-NHBn) | – | 5 (≈ 8.32 µM) | 10 (≈ 16.6 µM) | 4.24 | – | – | – | Stable |
| N=C(N)NCCCC[C@H](NC(=O)[C@H](Cc1ccc(-c2ccccc2)cc1)NC(=O)[C@@H](N)CCCNC(=N)N)C(=O)NCc1ccccc1 (H-Arg-[Bip]-[hArg]-NHBn) | – | 5 (≈ 7.61 µM) | 10 (≈ 15.2 µM) | 4.32 | 1.07 | 6.69 | 1.37 | Stable |
| N=C(N)NCCC[C@H](N)C(=O)N[C@@H](Cc1ccc(N)cc1)C(=O)N[C@@H](Cc1c[nH]c2ccccc12)C(=O)NCc1ccccc1 (H-Arg-[Phe(4-NH2)]-Trp-NHBn) | – | 75 (≈ 123 µM) | > 150 | 4.83 | – | – | – | Stable |
| N=C(N)NCCC[C@H](N)C(=O)N[C@@H](Cc1ccc(N)cc1)C(=O)N[C@@H](Cc1ccc(-c2ccccc2)cc1)C(=O)NCc1ccccc1 (H-Arg-[Phe(4-NH2)]-[Bip]-NHBn) | – | 15 (≈ 23.1 µM) | 10 (≈ 15.4 µM) | 5.59 | – | – | – | Stable |
| N=C(N)NCCC[C@H](N)C(=O)N[C@@H](Cc1ccc(NC(=N)N)cc1)C(=O)N[C@@H](Cc1c[nH]c2ccccc12)C(=O)NCc1ccccc1 (H-Arg-[Phe(4-guanidino)]-Trp-NHBn) | 8 | 15 (≈ 22.9 µM) | 50 (≈ 76.5 µM) | – | – | – | – | – |
| N=C(N)NCCC[C@H](N)C(=O)N[C@@H](Cc1ccc(NC(=N)N)cc1)C(=O)N[C@@H](Cc1ccc(-c2ccccc2)cc1)C(=O)NCc1ccccc1 (H-Arg-[Phe(4-guanidino)]-[Bip]-NHBn) | 3.5 | 2.5 (≈ 3.62 µM) | 5 (≈ 7.24 µM) | – | – | – | – | – |
| N=C(N)NCCC[C@H](NC(=O)[C@H](Cc1ccc(-c2ccccc2)cc1)NC(=O)[C@@H](N)CCCCN)C(=O)NCc1ccccc1 (H-Lys-[Bip]-Arg-NHBn) | 1.8 | 10 (≈ 16.3 µM) | 10 (≈ 16.3 µM) | 4.94 | – | – | – | – |
| NCCCC[C@H](NC(=O)[C@H](Cc1ccc(-c2ccccc2)cc1)NC(=O)[C@@H](N)CCCCN)C(=O)NCc1ccccc1 (H-Lys-[Bip]-Lys-NHBn) | 4.5 | 25 (≈ 42.6 µM) | 15 (≈ 25.6 µM) | 4.68 | – | – | – | – |
| N=C(N)Nc1ccc(C[C@H](NC(=O)[C@H](Cc2ccc(-c3ccccc3)cc2)NC(=O)[C@@H](N)CCCCN)C(=O)NCc2ccccc2)cc1 (H-Lys-[Bip]-[Phe(4-guanidino)]-NHBn) | 5 | 5 (≈ 7.54 µM) | 5 (≈ 7.54 µM) | – | – | – | – | – |
| N=C(N)NCCC[C@H](NC(=O)[C@H](Cc1ccc(-c2ccccc2)cc1)NC(=O)[C@@H](N)CNC(=N)N)C(=O)NCc1ccccc1 (H-[Agp]-[Bip]-Arg-NHBn) | 1.4 | 10 (≈ 16.3 µM) | 10 (≈ 16.3 µM) | – | – | – | – | – |
| N=C(N)NC[C@H](NC(=O)[C@H](Cc1ccc(-c2ccccc2)cc1)NC(=O)[C@@H](N)CNC(=N)N)C(=O)NCc1ccccc1 (H-[Agp]-[Bip]-[Agp]-NHBn) | – | 10 (≈ 17 µM) | 15 (≈ 25.6 µM) | – | – | – | – | Stable |
| N=C(N)NCCC[C@H](NC(=O)[C@H](Cc1ccc(-c2ccccc2)cc1)NC(=O)[C@@H](N)CCCN)C(=O)NCc1ccccc1 (H-[Orn]-[Bip]-Arg-NHBn) | 5.1 | 15 (≈ 25 µM) | 25 (≈ 41.6 µM) | 4.43 | – | – | – | – |
| N=C(N)NCCC[C@H](NC(=O)[C@H](Cc1ccc(-c2ccccc2)cc1)NC(=O)[C@@H](N)Cc1ccc(NC(=N)N)cc1)C(=O)NCc1ccccc1 (H-[Phe(4-guanidino)]-[Bip]-Arg-NHBn) | 0.5 | 5 (≈ 7.24 µM) | 5 (≈ 7.24 µM) | – | – | – | – | – |
| N=C(N)Nc1ccc(C[C@H](N)C(=O)N[C@@H](Cc2ccc(-c3ccccc3)cc2)C(=O)N[C@@H](CCCCN)C(=O)NCc2ccccc2)cc1 (H-[Phe(4-guanidino)]-[Bip]-Lys-NHBn) | 2.2 | 5 (≈ 7.54 µM) | 10 (≈ 15.1 µM) | – | – | – | – | – |
| N=C(N)Nc1ccc(C[C@H](NC(=O)[C@H](Cc2ccc(-c3ccccc3)cc2)NC(=O)[C@@H](N)Cc2ccc(NC(=N)N)cc2)C(=O)NCc2ccccc2)cc1 (H-[Phe(4-guanidino)]-[Bip]-[Phe(4-guanidino)]-NHBn) | 2.2 | < 2.5 | 5 (≈ 6.77 µM) | – | – | – | – | – |
| N=C(N)NCCCC[C@H](N)C(=O)N[C@@H](Cc1ccc(-c2ccccc2)cc1)C(=O)N[C@@H](CCCNC(=N)N)C(=O)NCc1ccccc1 (H-[hArg]-[Bip]-Arg-NHBn) | 1.9 | < 2.5 | 10 (≈ 15.2 µM) | – | – | – | – | – |

From ChEMBL document CHEMBL2163284, “Targeting the S1 and S3 subsite of trypsin with unnatural cationic amino acids generates antimicrobial peptides with potential for oral administration” (J Med Chem, 2012)
